Test results from patent US20240140991A1, “ANTIBIOTIC NATURAL PRODUCT ANALOGUES” (THE QUEEN'S UNIVERSITY OF BELFAST, priority 2021, published 2024).
Values after ≈ are worked out from the molar mass of the structure shown. Positions of bridges follow the written chain, without caps; N, C: chain ends. Non-standard residues stand in square brackets, D forms with d. Residues, ends and D or L forms follow the SMILES beside them. ξ: configuration not given here. *: point of attachment. Octanoyl(7-Me) = CC(C)CCCCCC(=O)*; Hexanoyl(4ξ-Me) = CCC(C)CCC(=O)*; dOrn = NCCC[C@@H](N)C(=O)O; Octanoyl = CCCCCCCC(=O)*; Orn = NCCC[C@H](N)C(=O)O; Dap = NC[C@H](N)C(=O)O; Alloc = C=CCOC(=O)*; OAll = C=CCO*

The compounds below were run on Escherichia coli ATCC 25922. Conditions: ATCC 25922.
Assay type: cell-based
Procedure, shortened: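 Broth microdilution in MHB per CLSI; inoculum 2×10^5 CFU mL^−1 from log-phase TSB cultures at OD600 0.5. Plates incubated 16 hours at 37° C with shaking at 220 rpm. MIC is the lowest concentration preventing visible growth.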
With `CC[C@H](C)[C@@H]1NC(=O)[C@@H](NC(=O)[C@H](Cc2c[nH]c3ccccc23)NC(=O)[C@@H](CCCN)NC(=O)CNC(=O)[C@H](CCCN)NC(=O)[C@@H](CCCN)NC(=O)[C@@H](Cc2c[nH]c3ccccc23)NC(=O)[C@@H](Cc2ccc(O)cc2)NC(=O)[C@@H](CO)NC(=O)CCCCCC(C)C)[C@@H](C)OC(=O)[C@@H](C)NC(=O)[C@@H](CO)NC(=O)CNC1=O` [Compound R12] ({Octanoyl(7-Me)}-[dS][dY][dW][dOrn][Orn]G[dOrn]WTIG[dS][dA]; ester 9-C; N-terminus assumed) the “Minimum inhibitory concentration (MIC)” value was 1 to 2 µg/mL. With `CC[C@H](C)[C@H](NC(=O)[C@@H](NC(=O)[C@H](Cc1c[nH]c2ccccc12)NC(=O)[C@@H](CCCN)NC(=O)CNC(=O)[C@H](CCCN)NC(=O)[C@@H](CCCN)NC(=O)[C@@H](Cc1c[nH]c2ccccc12)NC(=O)[C@@H](Cc1ccc(O)cc1)NC(=O)[C@@H](CO)NC(=O)CCCCCC(C)C)[C@@H](C)O)C(=O)N[C@@H](CC(N)=O)C(=O)NCC(=O)N[C@@H](C)C(N)=O` [Ala13 (Gly→Ala), FA-sywoOGoWTINGA-CONH2] ({Octanoyl(7-Me)}-[dS][dY][dW][dOrn][Orn]G[dOrn]WTINGA-NH2) the “Minimum inhibitory concentration (MIC)” value was 4 µg/mL (≈ 2.45 µM). In the case of `CC[C@H](C)[C@H](NC(=O)[C@H](CO)NC(=O)[C@H](Cc1c[nH]c2ccccc12)NC(=O)[C@@H](CCCN)NC(=O)CNC(=O)[C@H](CCCN)NC(=O)[C@@H](CCCN)NC(=O)[C@@H](Cc1c[nH]c2ccccc12)NC(=O)[C@@H](Cc1ccc(O)cc1)NC(=O)[C@@H](CO)NC(=O)CCCCCC(C)C)C(=O)N[C@@H](CC(N)=O)C(=O)NCC(=O)NCC(N)=O` [Ser9-CONH2] ({Octanoyl(7-Me)}-[dS][dY][dW][dOrn][Orn]G[dOrn]WSINGG-NH2), the “Minimum inhibitory concentration (MIC)” value is reported as 2 µg/mL (≈ 1.24 µM). In the case of `CC[C@H](C)[C@H](NC(=O)[C@@H](NC(=O)[C@H](Cc1c[nH]c2ccccc12)NC(=O)[C@@H](CCCN)NC(=O)CNC(=O)[C@H](CCCN)NC(=O)[C@@H](CCCN)NC(=O)[C@@H](Cc1c[nH]c2ccccc12)NC(=O)[C@@H](Cc1ccc(O)cc1)NC(=O)[C@@H](CO)NC(=O)CCCCCC(C)C)[C@@H](C)O)C(=O)N[C@@H](CC(N)=O)C(=O)NCC(=O)NCC(N)=O` [Thr9-CONH2] ({Octanoyl(7-Me)}-[dS][dY][dW][dOrn][Orn]G[dOrn]WTINGG-NH2), the “Minimum inhibitory concentration (MIC)” value is reported as 2 to 4 µg/mL. In the case of `CC[C@H](C)[C@H](NC(=O)[C@@H](NC(=O)[C@H](C)NC(=O)[C@@H](CCCN)NC(=O)CNC(=O)[C@H](CCCN)NC(=O)[C@@H](CCCN)NC(=O)[C@@H](Cc1c[nH]c2ccccc12)NC(=O)[C@@H](Cc1ccc(O)cc1)NC(=O)[C@@H](CO)NC(=O)CCCCCC(C)C)[C@@H](C)O)C(=O)N[C@@H](CC(N)=O)C(=O)NCC(=O)NCC(N)=O` [Ala8 (Trp→Ala), FA-sywoOGoATINGG-CONH2] ({Octanoyl(7-Me)}-[dS][dY][dW][dOrn][Orn]G[dOrn]ATINGG-NH2), the “Minimum inhibitory concentration (MIC)” value is reported as >64 µg/mL. With `CC[C@H](C)[C@H](NC(=O)[C@H](CCC(N)=O)NC(=O)[C@H](Cc1c[nH]c2ccccc12)NC(=O)[C@@H](CCCN)NC(=O)CNC(=O)[C@H](CCCN)NC(=O)[C@@H](CCCN)NC(=O)[C@@H](Cc1c[nH]c2ccccc12)NC(=O)[C@@H](Cc1ccc(O)cc1)NC(=O)[C@@H](CO)NC(=O)CCCCCC(C)C)C(=O)N[C@@H](CC(N)=O)C(=O)NCC(=O)NCC(N)=O` [Gln9-CONH2] ({Octanoyl(7-Me)}-[dS][dY][dW][dOrn][Orn]G[dOrn]WQINGG-NH2) the “Minimum inhibitory concentration (MIC)” value was 4 µg/mL (≈ 2.43 µM). For `CCCCCCCC(=O)N[C@H](CO)C(=O)N[C@H](Cc1ccc(O)cc1)C(=O)N[C@H](Cc1c[nH]c2ccccc12)C(=O)N[C@H](CCCN)C(=O)N[C@@H](CCCN)C(=O)NCC(=O)N[C@H](CCCN)C(=O)N[C@@H](Cc1c[nH]c2ccccc12)C(=O)N[C@@H](CO)C(=O)N[C@H](C(=O)N[C@@H](CC(N)=O)C(N)=O)[C@@H](C)CC` [ΔG12-G13-Ser9-C8] (Octanoyl-[dS][dY][dW][dOrn][Orn]G[dOrn]WSIN-NH2), the “Minimum inhibitory concentration (MIC)” value was 4 µg/mL (≈ 2.7 µM). For `C=CCOC(=O)CNC(=O)CNC(=O)[C@H](CC(N)=O)NC(=O)[C@@H](NC(=O)[C@H](CNC(=O)OCC=C)NC(=O)[C@H](Cc1c[nH]c2ccccc12)NC(=O)[C@@H](CCCN)NC(=O)CNC(=O)[C@H](CCCN)NC(=O)[C@@H](CCCN)NC(=O)[C@@H](Cc1c[nH]c2ccccc12)NC(=O)[C@@H](Cc1ccc(O)cc1)NC(=O)[C@@H](CO)NC(=O)CCCCCC(C)C)[C@@H](C)CC` [Dap(Alloc)9-COOAll] ({Octanoyl(7-Me)}-[dS][dY][dW][dOrn][Orn]G[dOrn]W[Dap](Alloc)INGG-OAll), the “Minimum inhibitory concentration (MIC)” value was 2 µg/mL (≈ 1.15 µM). `CCC(C)CCC(=O)N[C@H](CO)C(=O)N[C@H](Cc1ccc(O)cc1)C(=O)N[C@H](Cc1c[nH]c2ccccc12)C(=O)N[C@H](CCCN)C(=O)N[C@@H](CCCN)C(=O)NCC(=O)N[C@H](CCCN)C(=O)N[C@@H](Cc1c[nH]c2ccccc12)C(=O)N[C@@H]1C(=O)N[C@@H]([C@@H](C)CC)C(=O)NCC(=O)N[C@@H](CO)C(=O)N[C@@H](C)C(=O)O[C@@H]1C` (stereo partly shown) [Compound R5] ({Hexanoyl(4ξ-Me)}-[dS][dY][dW][dOrn][Orn]G[dOrn]WTIGSA; ester 9-C; N-terminus assumed) was tested, and the “Minimum inhibitory concentration (MIC)” value was 2 µg/mL (≈ 1.28 µM). `C=CCOC(=O)NC[C@H](NC(=O)[C@H](Cc1c[nH]c2ccccc12)NC(=O)[C@@H](CCCN)NC(=O)CNC(=O)[C@H](CCCN)NC(=O)[C@@H](CCCN)NC(=O)[C@@H](Cc1c[nH]c2ccccc12)NC(=O)[C@@H](Cc1ccc(O)cc1)NC(=O)[C@@H](CO)NC(=O)CCCCCC(C)C)C(=O)N[C@H](C(=O)N[C@@H](CC(N)=O)C(=O)NCC(=O)NCC(N)=O)[C@@H](C)CC` [Dap(Alloc)] ({Octanoyl(7-Me)}-[dS][dY][dW][dOrn][Orn]G[dOrn]W[Dap](Alloc)INGG-NH2) was tested, and the “Minimum inhibitory concentration (MIC)” value was 1 to 2 µg/mL. `CC[C@H](C)[C@H](NC(=O)[C@@H](NC(=O)[C@H](Cc1c[nH]c2ccccc12)NC(=O)[C@@H](CCCN)NC(=O)CNC(=O)[C@H](C)NC(=O)[C@@H](CCCN)NC(=O)[C@@H](Cc1c[nH]c2ccccc12)NC(=O)[C@@H](Cc1ccc(O)cc1)NC(=O)[C@@H](CO)NC(=O)CCCCCC(C)C)[C@@H](C)O)C(=O)N[C@@H](CC(N)=O)C(=O)NCC(=O)NCC(N)=O` [Ala5 (Orn→Ala), FA-sywoAGoWTINGG-CONH2] ({Octanoyl(7-Me)}-[dS][dY][dW][dOrn]AG[dOrn]WTINGG-NH2) was tested, and the “Minimum inhibitory concentration (MIC)” value was 32 µg/mL (≈ 20.3 µM). With `C[C@@H](N=[N+]=[N-])[C@H](N)C(=O)O` [(2S,3R)-2-amino-3-azidobutanoic acid] the “Minimum inhibitory concentration (MIC)” value was 2 to 4 µg/mL. For `C=CCOC(=O)NC[C@H](NC(=O)[C@H](Cc1c[nH]c2ccccc12)NC(=O)[C@@H](CCCN)NC(=O)CNC(=O)[C@H](CCCN)NC(=O)[C@@H](CCCN)NC(=O)[C@@H](Cc1c[nH]c2ccccc12)NC(=O)[C@@H](Cc1ccc(O)cc1)NC(=O)[C@@H](CO)NC(=O)CCCCCCC)C(=O)N[C@H](C(=O)N[C@@H](CC(N)=O)C(=O)NCC(N)=O)[C@@H](C)CC` [ΔG13-Dap(Alloc)9-C8] (Octanoyl-[dS][dY][dW][dOrn][Orn]G[dOrn]W[Dap](Alloc)ING-NH2), the “Minimum inhibitory concentration (MIC)” value was 2 to 4 µg/mL. `C=CCOC(=O)NC[C@H](NC(=O)[C@H](Cc1c[nH]c2ccccc12)NC(=O)[C@@H](CCCN)NC(=O)CNC(=O)[C@H](CCCN)NC(=O)[C@@H](CCCN)NC(=O)[C@@H](Cc1c[nH]c2ccccc12)NC(=O)[C@@H](Cc1ccc(O)cc1)NC(=O)[C@@H](CO)NC(=O)CCCCCC(C)C)C(=O)N[C@H](C(=O)N[C@@H](CC(N)=O)C(=O)NCC(N)=O)[C@@H](C)CC` [ΔG13-Dap(Alloc)9-isoC9] ({Octanoyl(7-Me)}-[dS][dY][dW][dOrn][Orn]G[dOrn]W[Dap](Alloc)ING-NH2) was tested, and the “Minimum inhibitory concentration (MIC)” value was 2 µg/mL (≈ 1.22 µM). With `CC[C@H](C)[C@H](NC(=O)[C@H](CC(C)C)NC(=O)[C@H](Cc1c[nH]c2ccccc12)NC(=O)[C@@H](CCCN)NC(=O)CNC(=O)[C@H](CCCN)NC(=O)[C@@H](CCCN)NC(=O)[C@@H](Cc1c[nH]c2ccccc12)NC(=O)[C@@H](Cc1ccc(O)cc1)NC(=O)[C@@H](CO)NC(=O)CCCCCC(C)C)C(=O)N[C@@H](CC(N)=O)C(=O)NCC(=O)NCC(N)=O` [Leu9-CONH2] ({Octanoyl(7-Me)}-[dS][dY][dW][dOrn][Orn]G[dOrn]WLINGG-NH2) the “Minimum inhibitory concentration (MIC)” value was 2 to 4 µg/mL.

The compounds below were run on E. coli. Conditions: not given.
Assay type: cell-based
Description: Minimum inhibitory concentration (MIC) was determined by broth microdilution according to CLSI guidelines. Blood agar plates were inoculated with glycerol stocks of Escherichia coli ATCC 25922, E. coli ATCC 25922 MCR-1, E. coli MCR-1 (clinical isolate from Utrecht Medical Center, NL), E. coli EQAS MCR-2 (clinical isolate from Wageningen University and Research, NL), Kiebsielia pneumoniae ATCC 11228, K. pneumoniae ATCC 13883, K. pneumonia 2048 (clinical isolate from Vrije Universiteit Amsterdam Medical Center, NL), K. pneumonia JS-123 (clinical isolate from Utrecht Medical Center, NL), Acinetobacter baumannii ATCC 17961, A. baumannil ATCC 17978, A. baumannii 2018-006 (clinical isolate from Rijksinstituut voor Volksgezondheid en Milieu, NL), A. baumannii MDR (clinical isolate from Vrije Universiteit Amsterdam Medical Center, NL), Pseudomonas aeruginosa ATCC 27853, P. aeruginosa PAO1, P. aeruginosa NRZ-03961 (Reference strain from Das Nationale Referenzzentrum für gramnegative Krankenhauserreger, DE), P. aeruginosa M-120 (clinical isolate from Leiden University Medical Center, NL) and Staphylococcus aureus USA300 (clinical isolate from Texas Children's Hospitalm, USA). E. coli 25922 MCR1 was grown on LB agar supplemented with kanamycin. The inoculated agar plates were then incubated for 16 hours at 37° C. Individually grown colonies were subsequently used to inoculate 3 mL aliquots of TSB that were then incubated at 37° C. with shaking at 220 rpm. In parallel, the compounds to be assessed were serially diluted with Mueller-Hinton broth (MHB) in polypropylene 96-well plates (50 μL in each well). Once the OD600 of the bacterial suspensions reached 0.5, the bacteria were diluted with MHB (final concentration 2×10^5 CFU mL^−1) and added to the microplates containing the test compounds (50 μL to each well, final volume: 100 μL). The well-plates were sealed with an adhesive membrane and after 16 hours of incubation at 37° C. with shaking at 220 rpm the wells were visually inspected for bacterial growth. MIC values were defined as the lowest concentration of the compound that prevented visible growth of bacteria.
MIC values were determined for the lipid analogues of brevicidine.
MIC values were determined for the position 9 analogues of linear brevicidine.
`CCC(C)CCC(=O)N[C@H](CC(N)=O)C(=O)N[C@H](Cc1ccc(O)cc1)C(=O)N[C@H](Cc1c[nH]c2ccccc12)C(=O)N[C@H](CCCN)C(=O)N[C@@H](CCCN)C(=O)NCC(=O)N[C@H](CCCN)C(=O)N[C@@H](Cc1c[nH]c2ccccc12)C(=O)N[C@@H](CC(C)C)C(=O)N[C@H](C(=O)NCC(N)=O)[C@@H](C)CC` (stereo partly shown) [Und(9-Leu)-NH2] ({Hexanoyl(4ξ-Me)}-[dN][dY][dW][dOrn][Orn]G[dOrn]WLIG-NH2) was tested, and the “E. coli MIC” value was 0.78 µg/mL.
